Data on three compounds can be found in paper PMC9474773, “PARP targeted Auger emitter therapy with [^125I]PARPi-01 for triple-negative breast cancer” (EJNMMI Research, 2022).

“And” between values parts separate entries of the source, which are not always exact repeats. Equal values may be shown once.

Details of data set [1]: method as in PMID 27169564. The settings on record: cited from earlier work.
Details of data set [2]: method as in PMID 29630818. The note with it: cited from earlier work.
Another data set concerns cytochrome P450 (CYP450). Also noted: method as in PMID 28736501, PMID 29717476. The note with it: cited from earlier work.
The subject of data set [3] is subcutaneous MDA-MB-231 xenografts. Description: Ex vivo biodistribution by gamma counter. The data set is classed as in vivo, NOD/SCID mice. The protocol: Female NOD/SCID mice at 5–6 weeks of age (Janvier, France) was used for developing subcutaneous TNBC tumour. Animals were housed in 20–24 °C in a 12 h day light cycle. For each mouse, 3 × 10^6 MDA-MB-231 cells were suspended in a 1:1 (volume) mixture of Culture media: Matrigel® matrix (Corning®, Product No: 356237). Mice were inoculated with this cell suspension (max 200 µl) subcutaneously in the right flank. Tumour growth was monitored daily using calliper measurements. Tumour volume was calculated daily according to the formula Tumourvolume=TumourLength×Tumourbreadth^2×0.52
Upon reaching of a tumour volume of 500 mm^3, animals were proceeded for experiments. For biodistribution study animals were administered with [^123I]PARPi-01 (n = 3). For therapy studies animals were randomized for control (n = 10) or [^125I]PARPi-01 administration (n = 10). Randomisation was done based on equivalent distribution of tumour volumes. In addition to the daily calliper measurements image analysis of CT based tumour volumes was blinded to avoid bias. Animals were sacrificed upon completion of biodistribution study or upon reaching a humane end point for the therapy study. Humane end point is determined as reaching of either of the following conditions: 15 mm tumour diameter, 1500 mm^3 tumour volume, or development of ulcers/ascites.
For biodistribution, animals imaged at 4 h p.i. were killed 24 h p.i., while the ones scanned 24 h p.i. were killed 5 days p.i.. Subsequently, organs were excised, weighed, and assayed for radioactivity in a gamma counter. Mean tumour and organ uptake was determined from decay-corrected tissue radioactivity normalized to injected dose and tissue sample weight (%ID/g tissue wet weight).

Data set [4] concerns subcutaneous MDA-MB-231 tumours. Nature of the data set: Small animal SPECT/CT imaging. The data set is classed as in vivo, NOD/SCID mice. The protocol:
Imaging was performed with a small animal SPECT/CT system (X-Cube and γ-Cube, Molecubes, Gent, Belgium). Mice bearing subcutaneous MDA-MB-231 tumours upon reaching tumour volume of 500 mm^3 were intravenously administered with [^123I]PARPi-01 (9.3 ± 2.7 MBq) via lateral tail-vein using a catheter under 1.5 to 2.5% isoflurane anaesthesia in oxygen at 0.8 L/min. [^123I]PARPi-01 was prepared by diluting the tracer in 0.9% NaCl to a total volume of 100 μL. Administered dose was calculated by subtraction of decay-corrected syringe activity post-injection from pre-injection activity. The mice were scanned either at 4 h or at 24 h post injection (p.i.). The CT acquisition settings were as follows: default high resolution protocol, 440 uA, 50 kVp, 32 ms exposure time, and 1080° rotation in a spiral mode with 960 exposures/360°; the duration of each CT scan was 5 min. A SPECT scan was initiated at the end of each CT scan. The SPECT acquisition settings were as follows: 7-headed camera equipped with a general-purpose collimator with 28 pinholes (i.e., 0.75 mm apertures and a radius of rotation of 20 mm), helical scan with 82 bed positions; the total duration of each SPECT scan was 30 min. Both CT and SPECT axial fields of view were selected at 105 mm. During the scans, the isoflurane concentration was adapted to achieve a respiratory rate between 75 and 50 breaths per minute. […]

On the set-up of data set [5]: method as in PMID 34318678. The settings on record: intracellular distribution not considered; cited from earlier work.
The mark [6] stands for this setting: 24 h p.i., i.v., decay-corrected, n = 3.

Turning to `O=C(c1cc(Cc2n[nH]c(=O)c3ccccc23)ccc1F)N1CCN(C(=O)C2CC2)CC1` [Olaparib], in data set [1], the dose limiting toxicities result is “anaemia, thrombocytopenia, and neutropenia”. Further, in data set [2], the “Log Poct” value was 1.95. In the data set on cytochrome P450 (CYP450), the “fraction metabolised in liver by CYP450” value was 84%.
Consider `O=C(c1ccc([123I])cc1)N1CCN(C(=O)c2cc(Cc3n[nH]c(=O)c4ccccc34)ccc2F)CC1` [[^123I]PARPi-01], for which the “Tumour: Blood Ratio” value in data set [3] (24 h p.i.) stood at 1.3. In data set [3] (setting [6]), the liver uptake was 2.5 %ID/g and 2.49 ± 0.6 %ID/g; the tumour uptake was 0.2 %ID/g. The “activity in organs of animals sacrificed at 5 d p.i.” value in data set [3] (5 d p.i.) is given as “no quantifiable activity”. Besides, the clearance pathway entry in data set [4] (4 h and 24 h p.i.) is reported as “hepatobiliary clearance”. In addition, the “deiodination in vivo (thyroid uptake)” value in data set [4] (24 h p.i.) is given as “strong deiodination”.
Consider `O=C(c1cccc([123I])c1)N1CCN(C(=O)c2cc(Cc3n[nH]c(=O)c4ccccc34)ccc2F)CC1` [[^123I]MAPi], for which, in data set [5], the “estimated absorbed dose in liver” value is listed as 0.0044 Gy/MBq and the “estimated absorbed dose in thyroid” value was 0.0041 Gy/MBq.
